From patent publication US8673852B2, “Methods of treating neuronal disorders using MNTF peptides and analogs thereof” (Genervon Biopharmaceuticals, LLC, priority 2006, dated 2014)

How the values were obtained:
SH-SY5Y cells = assay: Cell culture model of Parkinson's disease: SH-SY5Y cell viability (MTT) with or without salsolinol; assay type: cell-based, human; conditions: for Viability (% Cells) Mean ± SD: Salsolinol 100 μM alone, 24 h, MTT
Experimental: SH-SY5Y cells were purchased from American Type Culture Collection (Manassas, Va.) and cultured in a complete media containing minimum essential media, Hams F-12 media and Hanks Balanced Salt Solution Gibco-BRL) in a ratio of 2:1:1. The media also contained 10% fetal bovine serum along with penicillin (50 U/ml) and streptomycin ([…]). The cells were cultured in flasks and kept in a humidified incubator containing 5% CO2 in air at 37° C. The media was changed every 2-3 days.
Prior to manipulation, cultures were assigned to different treatment groups based on a randomized block design.
For cell viability experiments, SH-SY5Y cells (0.5×10^5/well) were cultured in a 96-well cell culture plate and treated with (±) SAL (Sigma, St. Louis, Mo.) alone or along with different concentrations of (GM6) (Genervon), with or without Wortmannin (WRT) (Sigma, St. Louis, Mo.), a phosphatidylinositol-3-kinase (PI-3 kinase) inhibitor, for 24 h. Cell viability was determined by Thiazolyl blue (MTT) assay.

embryonic stem cells = assay: Differentiation of embryonic stem cells into motor neurons in vitro; assay type: cell-based, murine
[1] = test system: stem cell derived motor neurons; assay: Survival of stem cell derived motor neurons; assay type: cell-based; conditions: compared with MNTF 33mer

Compound: C[C@@H]1NCCc2cc(O)c(O)cc21 [Salsolinol, reference compound]
- Viability (% Cells) Mean ± SD (SH-SY5Y cells): 36.48 ± 12.78%
- Viability (% Cells) Mean ± SD (SH-SY5Y cells; listed as SAL): 36.5%
- decrease in the number of cells (SH-SY5Y cells; salsolinol 100 μM, 24 hour treatment): 63.7%

Compound: LGTFWGDTLNCWMLSAFSRYARCLAEGHDGPTQ (LGTFWGDTLNCWMLSAFSRYARCLAEGHDGPTQ) [33-mer]
- differentiation of ES cells into motor neurons (embryonic stem cells; in conjunction with a low concentration of RA): induced differentiation

Compound: MLSAFSRYAR [MNTF 10mer]
- enhancing the survival of stem cell derived motor neurons [1]: nearly as effective as the MNTF 33mer
- concentrations at which at least as effective as the full-length MNTF 33mer at stimulating differentiation of embryonic stem cells into motor neurons (embryonic stem cells; in vitro): ≥ 0.01 µg/mL
